Patent publication US20040013717A1, “PEG-lipid containing formulations” (priority 2001, published 2004)

Assay: Stability of cryodesiccated composition
Assay type: physicochemical
Details: room temperature
Text: Once formulated, the micelles of the invention may be freeze-dried or lyophilized for long-term storage if desired. […] If the composition is freeze-dried, it may be packed in vials for subsequent reconstitution with a suitable aqueous solution, such as sterile water or sterile water containing a saccharide and/or other suitable excipients, just prior to use. For example, reconstitution may be by simply adding water for injection just prior to administration.

## benzoporphyrin derivative monoacid ring A [verteporfin]
  period over which potency was maintained: at least nine months
